Key:
[1] = system: oral cavity and pharyngeal surfaces; test: Sensory activity of ODT-A on volunteers; assay type: in vivo, human; details: 6 to 8 trials per compound
Protocol: ODT-A was prepared by dissolving the DAPA compound in absolute ethanol, adding a 80% mannitol-20% maltitol mixture of equal weight and then adding an equal volume of distilled water. The mixture was the stirred with a glass rod, and dispensed onto a piece of wax or parchment paper with a disposable plastic pipette. The viscous liquid drop formed was then dried under a heat source for at least 4 hr. The nominal dose of the API in ODT-A ranged from 1 to 3 mg/tablet. The dried tablets weighed on average 150 mg each and when on the dorsal surface of the tongue, rapidly dissolved completely in saliva and coated the oropharyngeal surface. These tablets were suitable for initial pilot studies, but were not uniform in size, were friable, especially in conditions of high ambient humidity, and were not readily amenable to further analytical evaluation.
Sensory Qualities of ODT on the Oral Cavity and Pharyngeal Surfaces The DAPA ODT of Study 2 were evaluated for sensory properties on volunteers. The ODT-A results [see table] are from 6 to 8 trials per compound in several experienced individuals familiar with sensory properties of “cooling agents”. The results of ODT-A will be discussed together with ODT-B and ODT-C.

[2] = target: T1, cloned hTRPM8 channel (encoded by the human TRPM8 gene, expressed in CHO cells) (Homo sapiens, UniProt Q7Z2W7); test: TRPM8 agonist FLIPR Fluo-8 calcium assay; assay type: cell-based; details: for EC50: CHO cells, Fluo-8, n=4 replicates
T1 construct: host or cells: CHO cells, stably transfected
Protocol: The in vitro effects of test compounds were evaluated on cloned hTRPM8 channel (encoded by the human TRPM8 gene, expressed in CHO cells) using a Fluo-8 calcium kit and a Fluorescence Imaging Plate Reader (FLIPR^TETRA™) instrument.
Test compounds and positive control solutions were prepared by diluting stock solutions in a HEPES-buffered physiological saline (HBPS) solution. The test compound and control formulations were loaded in polypropylene or glass-lined 384-well plates, and placed into the FLIPR instrument (Molecular Devices Corporation, Union City, Calif., USA). The test compounds were evaluated at 4 or 8 concentrations with n=4 replicates per determination. […] The test cells were Chinese Hamster Ovary (CHO) cells stably transfected with human TRPM8 cDNAs.
For the FLIPR^TETRA™ assay, cells were plated in 384-well black wall, flat clear-bottom microtiter plates (Type: BD Biocoat Poly-D-Lysine Multiwell Cell Culture Plate) at approximately 30,000 cells per well. Cells were incubated at 37° C. overnight to reach a near confluent monolayer appropriate for use in a fluorescence assay. The test procedure was to remove the growth media and to add 40 μL of HBPS containing Fluo-8 for 30 min at 37° C. 10 μL of test compound, vehicle, or control solutions in HBPS were added to each well and read for 4 min.
Concentration-response data were analyzed via the FLIPR Control software that is supplied with the FLIPR System (MDS-AT) and fitted to a Hill equation of the following form: […]
where: “Base” is the response at low concentrations of test compound; “Max” is the maximum response at high concentrations; “xhalf” is the EC50, the concentration of test compound producing half-maximal activation; and “rate” is the Hill coefficient. Nonlinear least squares fits were made assuming a simple one-to-one binding model.

oropharynx [3] = test: Chili-pepper sauce irritation test; assay type: in vivo, human; set-up: key: If there was no suppression of the irritant/tickling sensations of the sauce, the value was “0”; if there was some suppression, the value was “+”; if there was complete suppression, then the value was “++.”; details: ODT, sauce applied 30 min later; 6 to 8 trials per compound
Description: The “pain” component of inflammation includes irritation, itch, and discomfort and suppression of these endpoints is termed “anti-nociceptive”. To determine if a compound has anti-nociceptive activity, the Inventor has devised a modified capsaicin challenge method to evoke discomfort in the oropharyngx: the chili-pepper sauce irritation test. Chili-pepper sauce placed onto the posterior dorsal surface of the tongue evokes a tickling/irritant sensations in the oropharynx. The sensations associated with the chili pepper sauce are located in the back of the mouth and are clearly recognized and associated with irritation and a desire to clear the throat. In the chili-pepper sauce irritation test, the test compound is delivered using an ODT, as in Study 3, and 30 min later 0.2 to 0.25 mL of the sauce was applied onto the posterior dorsal surface of the tongue (with a syringe or a plastic stick). The chili pepper sauce used here is called Yank Sing® Chili Pepper Sauce (YS Gourmet Productions, Inc., PO Box 26189, San Francisco, Calif. 94126) and is a well-known condiment for use with dim sum (Chinese tea lunch). If there was no suppression of the irritant/tickling sensations of the sauce, the value was “0”; if there was some suppression, the value was “+”; and if there was complete suppression, then the value was “++.” For compounds that gave a ++ score, the irritative signals of the chili-pepper sauce are completely absent, yet the salty taste from the soy sauce of the condiment can still be readily tasted. A “++” result indicated suppression of the irritant effects of chili-pepper sauce. Numerical results are from 6 to 8 trials per compound.

throat = test: Cold water test after ODT-A (cold discomfort); assay type: in vivo, human; set-up: key: If the subject felt “normal coolness” in the throat, the value was “0”; if the water felt “excessively cold” on the throat, it was rated as “+”; if there was “aching cold/discomfort” on the throat, the ranking was “++”; details: ODT-A on the tongue, ice water drunk 10 min later
Protocol: After application of ODT-A there were sensations associated with heat abstraction of various intensity and duration. Of particular note was the sensation of “icy or painful” cold was felt with some compounds, but the effect was variable. To isolate this sensation more precisely and reduce variability, ODT-A was placed on the tongue and 10 min later the subject was instructed to drink a mouthful of water previously equilibrated with ice chips. If the subject felt “normal coolness” in the throat, the value was “0”; if the water felt “excessively cold” on the throat, it was rated as “+”; and if there was “aching cold/discomfort” on the throat, the ranking was “++”. The term “cold discomfort” was applied compounds that produced “++”, and this phenomenon could now be reliably defined and identified with the cold water test.

mouth and throat = test: Sensory activity of ODT-C on volunteers (double-blind, modified ASHRAE scale); assay type: in vivo, human; details: for ODT-C test results (sensation and taste in words) / duration of cooling effect: 1.2 to 1.5 mg per ODT; for ODT-C test results (sensation and taste in words): 4 volunteers; for duration of cooling effect: ODT-C; for ASHRAE equivalent: peak heat abstraction sensation, modified ASHRAE scale neutral [0] to icy cold [-4]
Protocol: ODT-C. More experiments were conducted to find a smaller tablet, in the range of 40 to 60 mg, with a disintegration of <10 sec. These paraemters might achieve a better pharmacological effect. ODT-B was 100 mg in size and disintegrated in <20 sec. […] For example, to 1.5 g of DAPA-2-5 is added 1.5 g of absolute ethanol, followed by 2.0 g of Neusilin US2. The mixture is shaken or mixed in a Speedmixer at 500 rpm for 1 min. The sample is placed under a heat source and about 2 hr later, the sample size is re-weighed with the expectation that the ethanol has been evaporated and the sample now weights 3.5 g. This powder is free-flowing. • b. a sample of maltitol powder is prepared (Maltisorb® P200 from Roquette). • c. a sample of Prosolv® EasyTab is prepared (JRS Pharma, Rosenburg, Germany). • d. a blend of a. [2.80 g], b. [15.73 g] and c. [31.46 g] is prepared to make 1000 ODT tablets, each weighing 50 mg and containing 1.2 mg of DAPA-2-5. • e. the blend is first shaken by hand, then placed for 2 min in a SpeedMixer at 500 rpm. The blend is poured into the funnel of a New Single Punch Tablet Press Pill Making Machine Maker TDP-1-5 [available from Amazon.com] and the extruded tablets are collected.
ODT-C, described in Study 2, were tested for sensory properties on 4 volunteers, with at least 3 trials per compound and at 1.2 to 1.5 mg per ODT. The ODT was placed on the mid-line posterior dorsal surface of the tongue and sensory effects recorded for 30 min on a standardized form […]. The ODT were coded and administered on a double-blind basis. A modified ASHRAE scale of neutral, slightly cool [-1], cool [-2], cold [-3], and icy cold [-4] was used to rank the peak heat abstraction sensations in the mouth and throat. Other perceived effects, e.g. taste and duration, were also noted.

[4] = system: dorsal surface of the tongue; details: 6 subjects, filter paper 1×1 cm, 30 sec; cited from earlier work
oropharynx [5] = test: Sensory effects and cold discomfort of compounds given orally in ODT (general evaluation); assay type: in vivo, human; details: menthol at a dose of 2 mg in an ODT; icilin dose not given
Protocol: The correlation between a chemical's potency at the TRPM8 receptor (measured by the EC50 μM) and potency to evoke sensory events in the oropharynx is complex.
When a test compound is applied to non-keratinizng bodily surfaces (e.g., oropharyngeal surface), it is possible to characterize the resulting sensations.
The sensations are akin to rapid drinking of cold water mixed and equilibrated with ice chips. The intense cold is further accentuated if the drink is acidified, for example, with lemonade. The sensations of dull and intense cold on the surface of the oropharynx can be described as painful, uncomfortable, and aversive. The term “icy cold” is used to describe these adverse intense cold sensations.
Together, these three types of sensations—“icy cold”, coldness in the chest, and systemic coldness—is termed “cold discomfort”. […] The ideal agent must have a circumscribed site of action, and the intensity of the sensation should not cause “icy cold”, coldness in the chest, or systemic chills.

ASIC3 (acid-sensing) = target: T2, ASIC3 (acid-sensing) (Homo sapiens, UniProt Q9UHC3); test: Patch-clamp in transfected cells, ASIC3; assay type: cell-based; details: DAPA-2-5 at 5 μM; positive control amiloride
T2 construct: expressed in transfected cells
T2 sequence (Q9UHC3 1-531): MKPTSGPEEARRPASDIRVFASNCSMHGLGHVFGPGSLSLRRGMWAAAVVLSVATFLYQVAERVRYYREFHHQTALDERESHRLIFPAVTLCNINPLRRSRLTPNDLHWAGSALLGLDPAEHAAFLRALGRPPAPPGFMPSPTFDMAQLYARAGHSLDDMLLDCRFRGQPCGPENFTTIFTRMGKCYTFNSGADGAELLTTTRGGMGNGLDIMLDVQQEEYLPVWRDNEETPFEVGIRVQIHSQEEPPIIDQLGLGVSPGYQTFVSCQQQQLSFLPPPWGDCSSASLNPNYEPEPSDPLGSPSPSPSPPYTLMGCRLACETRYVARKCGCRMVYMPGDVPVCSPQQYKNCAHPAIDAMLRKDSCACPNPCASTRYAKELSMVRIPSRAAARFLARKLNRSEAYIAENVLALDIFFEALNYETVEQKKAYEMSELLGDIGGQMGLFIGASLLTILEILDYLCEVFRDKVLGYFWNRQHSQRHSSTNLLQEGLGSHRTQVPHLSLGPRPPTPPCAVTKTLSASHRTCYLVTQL

[6] = target: T3, hNav1.7 (sodium channels) (Homo sapiens, UniProt Q15858); test: Patch-clamp in transfected cells, hNav1.7; assay type: cell-based; details: DAPA-2-5 at 5 μM; positive control lidocaine
T3 construct: expressed in transfected cells
T3 sequence (Q15858 whole entry): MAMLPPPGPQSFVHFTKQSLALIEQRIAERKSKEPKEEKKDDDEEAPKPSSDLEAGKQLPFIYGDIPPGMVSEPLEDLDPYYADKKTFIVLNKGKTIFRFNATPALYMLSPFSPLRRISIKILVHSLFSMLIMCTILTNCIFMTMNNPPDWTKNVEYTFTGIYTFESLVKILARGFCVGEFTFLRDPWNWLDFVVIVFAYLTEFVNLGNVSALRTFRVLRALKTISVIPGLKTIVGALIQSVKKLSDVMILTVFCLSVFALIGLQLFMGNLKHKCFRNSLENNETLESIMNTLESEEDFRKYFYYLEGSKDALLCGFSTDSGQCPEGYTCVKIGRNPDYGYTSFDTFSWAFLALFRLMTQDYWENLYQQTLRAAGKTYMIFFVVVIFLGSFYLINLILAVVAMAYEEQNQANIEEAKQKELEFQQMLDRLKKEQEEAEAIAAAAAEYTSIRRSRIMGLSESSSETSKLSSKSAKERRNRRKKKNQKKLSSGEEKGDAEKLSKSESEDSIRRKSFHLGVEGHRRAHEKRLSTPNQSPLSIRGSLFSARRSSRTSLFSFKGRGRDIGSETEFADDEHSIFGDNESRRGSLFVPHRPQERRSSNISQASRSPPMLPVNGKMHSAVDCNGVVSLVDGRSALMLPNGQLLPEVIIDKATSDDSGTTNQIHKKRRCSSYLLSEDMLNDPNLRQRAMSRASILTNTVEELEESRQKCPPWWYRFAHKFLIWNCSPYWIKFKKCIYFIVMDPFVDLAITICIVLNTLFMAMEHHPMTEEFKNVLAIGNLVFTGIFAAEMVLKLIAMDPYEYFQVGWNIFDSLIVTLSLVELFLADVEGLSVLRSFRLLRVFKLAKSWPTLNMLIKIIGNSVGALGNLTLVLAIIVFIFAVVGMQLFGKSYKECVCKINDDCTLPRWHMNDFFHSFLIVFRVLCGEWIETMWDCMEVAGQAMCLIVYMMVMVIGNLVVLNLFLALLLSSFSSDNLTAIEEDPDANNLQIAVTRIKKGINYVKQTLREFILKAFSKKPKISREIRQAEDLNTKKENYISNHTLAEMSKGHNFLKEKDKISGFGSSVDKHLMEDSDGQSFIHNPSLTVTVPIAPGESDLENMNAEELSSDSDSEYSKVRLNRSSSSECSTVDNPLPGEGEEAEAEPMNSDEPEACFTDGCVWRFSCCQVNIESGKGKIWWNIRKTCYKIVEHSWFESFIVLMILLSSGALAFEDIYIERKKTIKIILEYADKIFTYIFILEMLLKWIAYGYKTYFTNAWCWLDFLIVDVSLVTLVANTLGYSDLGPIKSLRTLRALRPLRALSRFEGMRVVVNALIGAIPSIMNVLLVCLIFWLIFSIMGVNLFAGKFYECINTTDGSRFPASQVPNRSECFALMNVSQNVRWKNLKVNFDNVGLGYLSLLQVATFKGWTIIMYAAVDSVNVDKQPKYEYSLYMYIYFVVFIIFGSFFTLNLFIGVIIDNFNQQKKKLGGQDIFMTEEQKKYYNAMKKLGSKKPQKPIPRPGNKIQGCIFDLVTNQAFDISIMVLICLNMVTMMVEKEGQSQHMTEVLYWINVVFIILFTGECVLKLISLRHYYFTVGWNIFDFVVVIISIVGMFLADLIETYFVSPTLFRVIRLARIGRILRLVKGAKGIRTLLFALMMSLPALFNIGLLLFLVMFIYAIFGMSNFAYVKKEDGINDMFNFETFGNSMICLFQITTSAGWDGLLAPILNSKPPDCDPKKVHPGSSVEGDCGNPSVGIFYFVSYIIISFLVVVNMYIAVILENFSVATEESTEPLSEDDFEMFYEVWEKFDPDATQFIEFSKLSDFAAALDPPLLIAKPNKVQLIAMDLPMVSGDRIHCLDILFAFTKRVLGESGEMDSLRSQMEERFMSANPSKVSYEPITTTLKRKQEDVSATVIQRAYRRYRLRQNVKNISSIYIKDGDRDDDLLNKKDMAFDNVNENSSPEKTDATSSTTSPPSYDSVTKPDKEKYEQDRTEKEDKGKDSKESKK

T1 sequence (Q7Z2W7 whole entry): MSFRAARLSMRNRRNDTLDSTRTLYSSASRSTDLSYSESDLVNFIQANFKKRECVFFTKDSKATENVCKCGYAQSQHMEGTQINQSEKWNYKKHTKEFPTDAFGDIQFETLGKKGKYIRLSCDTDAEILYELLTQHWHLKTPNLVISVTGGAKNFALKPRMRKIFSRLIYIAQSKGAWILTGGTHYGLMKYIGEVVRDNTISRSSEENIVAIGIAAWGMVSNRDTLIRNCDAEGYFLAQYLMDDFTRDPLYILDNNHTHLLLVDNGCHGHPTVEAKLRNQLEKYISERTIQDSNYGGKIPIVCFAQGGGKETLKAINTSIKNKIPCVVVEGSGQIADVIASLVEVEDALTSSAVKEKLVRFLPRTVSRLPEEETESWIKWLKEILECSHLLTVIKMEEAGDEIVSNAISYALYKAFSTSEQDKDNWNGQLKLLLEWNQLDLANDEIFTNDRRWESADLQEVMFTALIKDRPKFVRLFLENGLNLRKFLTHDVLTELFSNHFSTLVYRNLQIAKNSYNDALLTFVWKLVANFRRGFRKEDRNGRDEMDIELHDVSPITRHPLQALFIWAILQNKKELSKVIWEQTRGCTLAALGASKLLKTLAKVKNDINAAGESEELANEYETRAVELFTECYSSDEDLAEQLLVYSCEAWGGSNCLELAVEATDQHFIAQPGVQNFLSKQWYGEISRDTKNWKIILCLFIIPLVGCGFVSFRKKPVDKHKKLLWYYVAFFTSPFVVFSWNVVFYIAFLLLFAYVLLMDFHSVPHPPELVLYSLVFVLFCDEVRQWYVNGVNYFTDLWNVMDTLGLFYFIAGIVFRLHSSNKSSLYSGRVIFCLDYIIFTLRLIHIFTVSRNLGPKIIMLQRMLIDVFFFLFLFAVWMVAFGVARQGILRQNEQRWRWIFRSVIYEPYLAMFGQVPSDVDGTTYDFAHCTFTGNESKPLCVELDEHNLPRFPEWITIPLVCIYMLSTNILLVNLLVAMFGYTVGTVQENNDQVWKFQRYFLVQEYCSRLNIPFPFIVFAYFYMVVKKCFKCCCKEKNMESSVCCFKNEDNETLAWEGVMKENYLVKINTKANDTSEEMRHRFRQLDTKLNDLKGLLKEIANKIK

SMILES	Duration [1] [min]	Onset [1] [min]	Sensory Quality [1]	Relative Potency to L-menthol [2]	Chili test (oropharynx [3])	Cold Discomfort (throat)	ODT-C test results (sensation and taste in words) (mouth and throat)	duration of cooling effect (mouth and throat) [min]	ASHRAE equivalent (mouth and throat)	also measured
CCCCCP(=O)(C(C)C)C(C)C [DAPA-1-5, 1-Di(isopropyl)-phosphinoyl-pentane]	5	0.1	cool	0.7	++	0	brief but intense cool	< 5	−2.7	
CCCCCCCCP(=O)(C(C)C)C(C)C [DAPA-1-8, 1-Di(isopropyl)-phosphinoyl-octane]	27	1.2	cool	5.4	+	+	strong unpleasant taste	~15	−3	
CCCCP(=O)(C(C)CC)C(C)CC (stereo not drawn) [DAPA-2-4, 1-Di(sec-butyl) phosphinoyl-butane]	3	1	brief cool	0.3	0	0	pleasant cool, but transient effect	< 5	−2.5	
CCCCCP(=O)(CC(C)C)CC(C)C [DAPA-3-1, 1-di(iso-butyl) phosphinoyl-pentane]	0		not active	0.2	0	0				Onset (min) [1]: not active; EC50 [2]: 24 µM
CCC(C)P(=O)(CCC(C)C)C(C)CC (stereo not drawn) [DAPA-3-2, 1-Di(sec-butyl) phosphinoyl-3-methyl-butane]	2	1	brief cool	0.9	0	0				EC50 [2]: 4.2 µM
CC(C)[C@@H]1CC[C@@H](C)C[C@H]1O [Menthol, L-menthol, reference compound]										average threshold for cooling on the tongue [4]: 0.25 µg; sensory effects / side-effects in an ODT (oropharynx [5]): produced chest discomfort; rank in TRPM8 potency among the 21 compounds tested [2]: 16
N=C(N)NC(=O)c1nc(Cl)c(N)nc1N [amiloride, reference compound]										agonist or antagonist activity, ASIC3 (ASIC3 (acid-sensing)): active
O=C1NC(c2cccc([N+](=O)[O-])c2)=CCN1c1ccccc1O [icilin, reference compound]										sensory effects / side-effects in an ODT (oropharynx [5]): did not produce cooling in the chest or the desired sensations on the throat; rank in TRPM8 potency among the 21 compounds tested [2]: 4
CCN(CC)CC(=O)Nc1c(C)cccc1C [lidocaine, reference compound]										agonist or antagonist activity, hNav1.7 [6]: active

— US20150111852A1, “1-Di(sec-butyl)-phosphinoyl-pentane (dapa-2-5) as a topical agent” (priority 2013, published 2015)
